According to patent US20260206751A1, “NOVEL BICYCLIC-CARBOXAMIDE COMPOUNDS USEFUL AS PESTICIDES” (SYNGENTA CROP PROTECTION AG, priority 2022, published 2026):

Legend:
Assay type in all cases: in vivo
[1] = system: Euschistus heros (Neotropical Brown Stink Bug); assay: Euschistus heros (neotropical brown stink bug) feeding/contact activity; conditions: 120 h, application rate 200 ppm, sprayed soybean leaves, N2 nymphs, 5 days after infestation, read-out: effect in at least one of the two categories (mortality or growth inhibition)
Protocol: Example B2: Euschistus heros (Neotropical Brown Stink Bug) Feeding/Contact Activity
Soybean leaves on agar in 24-well microtiter plates were sprayed with aqueous test solutions prepared from 10,000 ppm DMSO stock solutions. After drying the leaves were infested with N2 nymphs. The samples were assessed for mortality and growth inhibition in comparison to untreated samples 5 days after infestation.

[2] = system: Myzus persicae (Green Peach Aphid); assay: Myzus persicae (green peach aphid) feeding/contact activity, eggplant leaf discs; conditions: foliar, 144 h, application rate 200 ppm, sprayed eggplant leaf discs, aphid population of mixed ages, 6 days after infestation, read-out: growth inhibition
Protocol: (§1) Example B6: Myzus persicae (Green Peach Aphid) Feeding/Contact Activity Eggplant leaf discs were placed onto agar in a 24-well microtiter plate and sprayed with aqueous test solutions prepared from 10,000 ppm DMSO stock solutions. After drying, the leaf discs were infested with an aphid population of mixed ages. The samples were assessed for mortality 6 days after infestation.

[3] = system: Myzus persicae (Green Peach Aphid); assay: Myzus persicae (green peach aphid) feeding/contact activity, sunflower leaf discs; conditions: foliar, 144 h, application rate 200 ppm, sprayed sunflower leaf discs, aphid population of mixed ages, 6 days after infestation
Protocol: Example B4: Myzus persicae (Green Peach Aphid):Feeding/Contact Activity
as §1, with “Sunflower” for “Example B6: Myzus persicae (Green Peach Aphid) Feeding/Contact Activity Eggplant”

[4] = system: Diabrotica balteata (Corn Root Worm); assay: Diabrotica balteata (corn root worm) feeding/contact activity; conditions: 96 h, application rate 200 ppm, sprayed maize sprouts, L2 larvae, 4 days after infestation, read-out: effect in at least one of the two categories (mortality or growth inhibition)
Protocol: Example B1: Diabrotica balteata (Corn Root Worm) Feeding/Contact Activity
Maize sprouts placed onto an agar layer in 24-well microtiter plates were treated with aqueous test solutions prepared from 10,000 ppm DMSO stock solutions by spraying. After drying, the plates were infested with L2 larvae (6 to 10 per well). The samples were assessed for mortality and growth inhibition in comparison to untreated samples 4 days after infestation.

[5] = system: Frankliniella occidentalis (Western Flower Thrips); assay: Frankliniella occidentalis (western flower thrips) feeding/contact activity; conditions: foliar, 168 h, application rate 200 ppm, sprayed sunflower leaf discs, population of mixed ages, 7 days after infestation
Protocol: Example B3: Frankliniella occidentalis (Western Flower Thrips): Feeding/Contact Activity
Sunflower leaf discs were placed on agar in 24-well microtiter plates and sprayed with aqueous test solutions prepared from 10,000 DMSO stock solutions. After drying the leaf discs were infested with a Frankliniella population of mixed ages. The samples were assessed for mortality 7 days after infestation.

[6] = system: Myzus persicae (Green Peach Aphid); assay: Myzus persicae (green peach aphid) intrinsic activity; conditions: 120 h, test rate 12 ppm, mixed with sucrose solution, Parafilm, infested pea seedlings, 5 days after infestation
Excerpt: Example B5: Myzus persicae (Green Peach Aphid). Intrinsic Activity
Test compounds prepared from 10,000 ppm DMSO stock solutions were applied by pipette into 24-well microtiter plates and mixed with sucrose solution. The plates were closed with a stretched Parafilm. A plastic stencil with 24 holes was placed onto the plate and infested pea seedlings were placed directly on the Parafilm. The infested plate was closed with a gel blotting paper and another plastic stencil and then turned upside down. The samples were assessed for mortality 5 days after infestation.

[7] = system: Plutella xylostella (Diamond Back Moth); assay: Plutella xylostella (diamond back moth) feeding/contact activity; conditions: 192 h, application rate 200 ppm, artificial diet, Plutella eggs, 8 days after infestation, read-out: effect in at least one of the two categories (mortality or growth inhibition)
Protocol: Example B7: Plutella xylostella (Diamond Back Moth) Feeding/Contact Activity
24-well microtiter plates with artificial diet were treated with aqueous test solutions prepared from 10,000 ppm DMSO stock solutions by pipetting. After drying, Plutella eggs were pipetted through a plastic stencil onto a gel blotting paper and the plate was closed with it. The samples were assessed for mortality and growth inhibition in comparison to untreated samples 8 days after infestation.

[8] = system: Spodoptera littoralis (Egyptian Cotton Leaf Worm); assay: Spodoptera littoralis (Egyptian cotton leaf worm) feeding/contact activity; conditions: foliar, 72 h, application rate 200 ppm, sprayed cotton leaf discs, L1 larvae, 3 days after infestation, read-out: control (mortality, anti-feeding effect, growth inhibition)
Protocol: Example B8: Spodoptera littoralis (Egyptian Cotton Leaf Worm) Feeding/Contact Activity
Cotton leaf discs were placed onto agar in 24-well microtiter plates and sprayed with aqueous test solutions prepared from 10,000 ppm DMSO stock solutions. After drying the leaf discs were infested with five L1 larvae. The samples were assessed for mortality, anti-feeding effect, and growth inhibition in comparison to untreated samples 3 days after infestation. Control of Spodoptera littoralis by a test sample is given when at least one of the categories mortality, anti-feedant effect, and growth inhibition is higher than the untreated sample.

[9] = system: Tetranychus urticae (Two-Spotted Spider Mite); assay: Tetranychus urticae (two-spotted spider mite) feeding/contact activity; conditions: foliar, 192 h, application rate 200 ppm, sprayed bean leaf discs, mite population of mixed ages (mobile stages), 8 days after infestation
Protocol: Example B9: Tetranychus urticae (Two-Spotted Spider Mite): Feeding/Contact Activity
Bean leaf discs on agar in 24-well microtiter plates were sprayed with aqueous test solutions prepared from 10,000 ppm DMSO stock solutions. After drying the leaf discs were infested with a mite population of mixed ages. The samples were assessed for mortality on mixed population (mobile stages) 8 days after infestation.

In the case of `C[C@@H](COc1cc2c(c(C(=O)NC3CC3)c1)CCC2)NS(=O)(=O)C(F)(F)F` [P-33, N-cyclopropyl-6-[(2S)-2-(trifluoromethylsulfonylamino)propoxy]indane-4-carboxamide], the percent effect (mortality or growth inhibition) at 200 ppm [1] is reported as ≥ 80% and the inhibition at 200 ppm [2] is reported as ≥ 80%.

With `Cc1c(OC[C@H](C)NS(=O)(=O)C(F)(F)F)cc(C(=O)NC2CC2)c2c1CCC2` [P-3] the percent effect (mortality or growth inhibition) at 200 ppm [1] was ≥ 80%, the mortality at 200 ppm [3] was ≥ 80% and the percent effect (mortality or growth inhibition) at 200 ppm [4] was ≥ 80%. The mortality at 200 ppm [5] was ≥ 80%, the mortality at 12 ppm [6] was ≥ 80% and the percent effect (mortality or growth inhibition) at 200 ppm [7] was ≥ 80%.

With `CO/N=C/NC(=O)c1cc(OC[C@H](C)NS(=O)(=O)C(F)(F)F)c(C)c2c1CCC2` [P-6, N-[(E)-methoxyiminomethyl]-7-methyl-6-[(2S)-2-(trifluoromethylsulfonylamino)propoxy]indane-4-carboxamide] the mortality at 200 ppm [3] was ≥ 80%.

`Cc1c(OC[C@H](C)NS(=O)(=O)C(F)(F)F)cc(C(=O)NC2(C#N)CC2)c2c1CCC2` [P-7, N-(1-cyanocyclopropyl)-7-methyl-6-[(2S)-2-(trifluoromethylsulfonylamino)propoxy]indane-4-carboxamide] was tested, and the mortality at 200 ppm [3] was ≥ 80%, the mortality at 200 ppm [5] was ≥ 80% and the mortality at 12 ppm [6] was ≥ 80%.

With `Cc1cc(F)ccc1NC(=O)c1cc(OC[C@H](C)NS(=O)(=O)C(F)(F)F)cc2c1CCCC2` [P-28, N-(4-fluoro-2-methyl-phenyl)-7-[(2S)-2-(trifluoromethylsulfonylamino)propoxy]tetralin-5-carboxamide] the percent effect (mortality or growth inhibition) at 200 ppm [7] was ≥ 80%.

In the case of `C[C@@H](COc1cc2c(c(C(=O)Nc3ccc(F)cc3F)c1)CCCC2)NS(=O)(=O)C(F)(F)F` [P-22, N-(2,4-difluorophenyl)-7-[(2S)-2-(trifluoromethylsulfonylamino)propoxy]tetralin-5-carboxamide], the mortality at 200 ppm [8] is reported as ≥ 80%.

In the case of `Cc1c(OC[C@H](C)NS(=O)(=O)C(F)(F)F)cc(C(=O)NC2(C(=O)O)CC2)c2c1CCC2` [P-5], the mortality at 200 ppm [3] is reported as ≥ 80%.

With `Cc1c(OC[C@H](C)NS(=O)(=O)C(F)(F)F)cc(C(N)=O)c2c1CCC2` [P-1, 7-methyl-6-[(2S)-2-(trifluoromethylsulfonylamino)propoxy]indane-4-carboxamide] the mortality at 200 ppm [3] was ≥ 80%.

In the case of `C[C@@H](COc1cc2c(c(C(=O)NC34CC(C3)C4)c1)CCCC2)NS(=O)(=O)C(F)(F)F` [P-32, N-(1-bicyclo[1.1.1]pentanyl)-7-[(2S)-2-(trifluoromethylsulfonylamino)propoxy]tetralin-5-carboxamide], the mortality at 12 ppm [6] is reported as ≥ 80% and the percent effect (mortality or growth inhibition) at 200 ppm [7] is reported as ≥ 80%.

`C[C@@H](COc1cc2c(c(C(=O)NCc3ncccn3)c1)CCCC2)NS(=O)(=O)C(F)(F)F` [P-23, N-(pyrimidin-2-ylmethyl)-7-[(2S)-2-(trifluoromethylsulfonylamino)propoxy]tetralin-5-carboxamide] was tested, and the mortality at 200 ppm [5] was ≥ 80%.

`CCN1OC[C@@H](NC(=O)c2cc(OC[C@H](C)NS(=O)(=O)C(F)(F)F)c(C)c3c2CCC3)C1=O` [P-2, N-[(4R)-2-ethyl-3-oxo-isoxazolidin-4-yl]-7-methyl-6-[(2S)-2-(trifluoromethylsulfonylamino)propoxy]indane-4-carboxamide] was tested, and the mortality at 200 ppm [3] was ≥ 80%.

In the case of `Cc1c(OC[C@H](C)NS(=O)(=O)C(F)(F)F)cc(C(=O)NC23CC(C2)C3)c2c1CCC2` [P-41, N-(1-bicyclo[1.1.1]pentanyl)-7-methyl-6-[(2S)-2-(trifluoromethylsulfonylamino)propoxy]indane-4-carboxamide], the mortality at 12 ppm [6] is reported as ≥ 80% and the percent effect (mortality or growth inhibition) at 200 ppm [7] is reported as ≥ 80%.

For `Cc1c(OC[C@H](C)NS(=O)(=O)C(F)(F)F)cc(C(=O)NC2CON(CC(F)(F)F)C2=O)c2c1CCC2` (stereo partly drawn) [P-40, 7-methyl-N-[3-oxo-2-(2,2,2-trifluoroethyl)isoxazolidin-4-yl]-6-[(2S)-2-(trifluoromethylsulfonylamino)propoxy]indane-4-carboxamide], the mortality at 12 ppm [6] was ≥ 80% and the percent effect (mortality or growth inhibition) at 200 ppm [7] was ≥ 80%.

`C[C@@H](COc1cc2c(c(C(N)=O)c1)CCCC2)NS(=O)(=O)C(F)(F)F` [P-30, 7-[(2S)-2-(trifluoromethylsulfonylamino)propoxy]tetralin-5-carboxamide] was tested, and the inhibition at 200 ppm [2] was ≥ 80%.

For `COC(=O)C1(NC(=O)c2cc(OC[C@H](C)NS(=O)(=O)C(F)(F)F)c(C)c3c2CCC3)CC1` [P-4, methyl 1-[7-methyl-6-[(2S)-2-(trifluoromethylsulfonylamino)propoxy]indane-4-carbonyl]amino] cyclopropanecarboxylate], the mortality at 200 ppm [3] was ≥ 80% and the percent effect (mortality or growth inhibition) at 200 ppm [7] was ≥ 80%.

`C[C@@H](COc1cc2c(c(C(=O)NCC(F)(F)F)c1)CCCC2)NS(=O)(=O)C(F)(F)F` [P-15, N-(2,2,2-trifluoroethyl)-7-[(2S)-2-(trifluoromethylsulfonylamino)propoxy]tetralin-5-carboxamide] was tested, and the percent effect (mortality or growth inhibition) at 200 ppm [7] was ≥ 80%.

For `C[C@@H](COc1cc2c(c(C(=O)NC3(C#N)CCC3)c1)CCCC2)NS(=O)(=O)C(F)(F)F` [P-11, N-(1-cyanocyclobutyl)-7-[(2S)-2-(trifluoromethylsulfonylamino)propoxy]tetralin-5-carboxamide], the mortality at 12 ppm [6] was ≥ 80%.

With `C[C@@H](COc1cc2c(c(C(=O)NC3(C#N)CC3)c1)CCCC2)NS(=O)(=O)C(F)(F)F` [P-8, N-(1-cyanocyclopropyl)-7-[(2S)-2-(trifluoromethylsulfonylamino)propoxy]tetralin-5-carboxamide] the mortality at 200 ppm [3] was ≥ 80%, the mortality at 12 ppm [6] was ≥ 80% and the percent effect (mortality or growth inhibition) at 200 ppm [7] was ≥ 80%.

For `C[C@@H](COc1cc2c(c(C(=O)NC3CC3)c1)CCCC2)NS(=O)(=O)C(F)(F)F` [P-9, N-cyclopropyl-7-[(2S)-2-(trifluoromethylsulfonylamino)propoxy]tetralin-5-carboxamide], the mortality at 200 ppm [3] was ≥ 80%, the mortality at 12 ppm [6] was ≥ 80% and the percent effect (mortality or growth inhibition) at 200 ppm [7] was ≥ 80%.

With `Cc1c(OC[C@H](C)NS(=O)(=O)C(F)(F)F)cc(C(=O)NCC(F)(F)F)c2c1CCC2` [P-39, 7-methyl-N-(2,2,2-trifluoroethyl)-6-[(2S)-2-(trifluoromethylsulfonylamino)propoxy]indane-4-carboxamide] the percent effect (mortality or growth inhibition) at 200 ppm [7] was ≥ 80%.

With `Cc1cc(F)ccc1NC(=O)c1cc(OC[C@H](C)NS(=O)(=O)C(F)(F)F)c(C)c2c1CCC2` [P-42, N-(4-fluoro-2-methyl-phenyl)-7-methyl-6-[(2S)-2-(trifluoromethylsulfonylamino)propoxy]indane-4-carboxamide] the mortality at 12 ppm [6] was ≥ 80%.

With `Cc1c(OC[C@H](C)NS(=O)(=O)C(Cl)Cl)cc(C(=O)NC2CC2)c2c1CCC2` [P-34, N-cyclopropyl-6-[(2S)-2-(dichloromethylsulfonylamino)propoxy]-7-methyl-indane-4-carboxamide] the mortality at 200 ppm [9] was ≥ 80%.
